According to US10426768B2, “Subcutaneous delivery of polymer conjugates of therapeutic agents” (Serina Therapeutics, Inc., priority 2011, dated 2019):
Where two headings read alike, the source gives them in different places.

How the values were obtained:
[1] = man; cited from earlier work
6-OHDA Rat Model [2] = assay: Forelimb asymmetry (cylinder) test in the 6-OHDA rat model, single subcutaneous dose; type: in vivo, female Sprague-Dawley rats
Procedure: (§1) In order to study the efficacy of the POZ conjugates described herein, in vivo studies were conducted with female Sprague-Dawley rats. Female Sprague-Dawley rats (275-350 g) were used in the study. Each animal underwent stereotaxic surgery and received a unilateral lesion of the right nigrostriatal pathway via injection of 12.5 μg of 6-hydroxydopamine (6-OHDA) into a single site in the medial forebrain bundle. Rats were monitored over two weeks and underwent behavioral assessment (on day −7) via the cylinder test. Animals lacking overt behavioral asymmetry ([…] ipsilateral forelimb use) were excluded from the study. The rats were them randomly assigned to one of six treatment groups (each N=8). […] The rats received a single subcutaneous dose (2 mL/kg) of vehicle (5% dextrose) or test compound dissolved in 5% dextrose.
(§2) Each group of animals (A-F as described above) were independently assessed rat for rotational behavior and forelimb symmetry on day 1, day 2, day 5 and day 9. In the rotational test, the animals were placed in an automated rotometer apparatus (MedAssociates, USA) and the net number of rotations contraversive to the lesion were recorded over a period of 6 hours on each day. In the forelimb symmetry test, the rats are placed in a clear glass cylinder without top (15 cm diameter×45 cm tall). The number of times each paw touches the side of the cylinder during an individual rear is recorded over a 10 minute observation on each day. The first limb in any rear to touch the wall is scored a single point. If both limbs contact within 0.4 s of each other, then this is scored as a ‘both’. All subsequent exploratory movements about the wall using that limb are scored independently until the other limb contacts the wall with weight support. Alternating stepping motions involving both paws one after the other receive a single score for both. The net number of contralateral touches are calculated and considered a favorable response.

[3] = rats; cited from earlier work
6-OHDA Rat Model [4] = assay: Rotational test in the 6-OHDA rat model, single subcutaneous dose; type: in vivo, female Sprague-Dawley rats
Procedure: as §1, §2

[5] = Pharmacokinetics of rotigotine in rat after intravenous and subcutaneous administration of POZ conjugates; type: in vivo, male Sprague-Dawley rats; conditions: for PK profile of plasma rotigotine, in words / Cmax values of plasma rotigotine: rat; for PK profile of plasma rotigotine, in words: SC compared with IV; for Cmax values of plasma rotigotine: at 12 hours, dosed SC at 1.6 mg/kg
Procedure: In order to study the pharmacokinetics of the POZ conjugates described herein, in vivo studies were conducted with male Sprague-Dawley rats. Twenty-seven male cannulated Sprague-Dawley rats (300-350 g) were divided into nine groups of 3 animals per group. Groups I-II received a single subcutaneous (SC) dose (right flank) of POZ acetyl rotigotine (as described in Example 6) at equivalent doses of 1.6 and 6.4 mg/kg. […] Group V received a single subcutaneous (SC) dose (right flank) of rotigotine hydrochloride at an equivalent dose of 0.5 mg/kg. Groups VI-VII received a single intravenous (IV) dose (lateral tail vein) of POZ acetyl rotigotine (as described in Example 6) at equivalent doses of 0.5 and 2.0 mg/kg. […] The test articles were dissolved in 5% dextrose injection and filtered prior to each injection. Serial blood samples were obtained from each intravenously dosed animal through the cannulated catheter, at time intervals of end of injection, 12, 24, 48, 96 and 168 hours. The time intervals for the subcutaneously dosed animals were 6, 12, 24, 48, 96 and 168 hours. The blood was processed to collect the plasma which was stored at −70° C. before analysis. The plasma samples were extracted with acetonitrile using d3-rotigotine as an internal standard and the analytes in the extract were assayed by chromatographic analysis on LC/MS-MS system using a C-18 reverse phase column with 0.9 um silica coreshell (Accucore™, Thermo Scientific, 30×2.1 mm ID and 2.6 micron particle size). The mobile phase was ammonium formate 10 mM pH3.0 (solvent A); and 90% acetonitrile, 10% methanol, and 0.1% formic acid (solvent B), eluting at 0.6 mL/min.

[6] = oral; cited from earlier work
[7] = Water solubility of the produced polyoxazoline conjugate; type: physicochemical
[8] = Pharmacokinetics of rotigotine in monkey after subcutaneous administration of POZ conjugates; type: in vivo, female macaques (Cynomolgus monkeys); conditions: for average terminal plasma half-life (t½) of rotigotine: one subcutaneous dose, 1.5 or 4.5 mg/kg rotigotine equivalents
Procedure: The pharmacokinetics of the POZ conjugates of rotigotine was measured in normal, treatment-naïve female macaques. Animals were randomly assigned into four treatment groups, each N=3. […] The test articles were dissolved in 5% dextrose injection and filtered prior to each injection. Serial venous blood samples were obtained from each animal prior to administration of experimental agents on Day 1 and subsequently at 15 min, 30 min, 1 h, 2 h, 4 h, 6 h, 8 h, 24 h, 48 h, 96 h, 192 h, 240 h and 336 h. The blood was processed to collect the plasma which was stored at −70° C. before analysis. These plasma samples were processed and assayed by chromatographic analysis on LC/MS-MS system as described in Example 31.

| Molecule | water solubility, in words [7] | Net ipsiversive forelimb use as a percentage of total forelimb use (Average ± SEM; n = 8) (6-OHDA Rat Model [2]; 1.6 mg/kg SC, Day 2) [%] | Net ipsiversive forelimb use as a percentage of total forelimb use (Average ± SEM; n = 8) (6-OHDA Rat Model [2]; 1.6 mg/kg SC, Day 5) [%] | Net number of contraversive turns/6 h period (Average ± SEM; n = 8) (6-OHDA Rat Model [4]; 1.6 mg/kg SC, Day 1) [turns/6 h period] | Net number of contraversive turns/6 h period (Average ± SEM; n = 8) (6-OHDA Rat Model [4]; 1.6 mg/kg SC, Day 5) [turns/6 h period] | terminal plasma half-life (t½) of rotigotine ([5]; rat plasma, IV or SC dosing) [h] | PK profile of plasma rotigotine, in words [5] | Cmax values of plasma rotigotine [5] [ng/mL] | average terminal plasma half-life (t½) of rotigotine [8] [h] | other results |
| --- | --- | --- | --- | --- | --- | --- | --- | --- | --- | --- |
| CCCN(CCc1cccs1)[C@H]1CCc2c(O)cccc2C1 [Rotigotine, S(−)-2-(N-propyl-N-2-thienylethylamino)-5-hydroxytetralin, reference compound] | – | – | – | – | – | – | – | – | – | half-life [1]: 2.5 h; Net ipsiversive forelimb use as a percentage of total forelimb use (Average ± SEM; n = 8) (6-OHDA Rat Model [2]; 0.5 mg/kg SC, Day 2): 60 ± 13%; Net ipsiversive forelimb use as a percentage of total forelimb use (Average ± SEM; n = 8) (6-OHDA Rat Model [2]; 0.5 mg/kg SC, Day 5): 94 ± 6%; Net ipsiversive forelimb use as a percentage of total forelimb use (Average ± SEM; n = 8) (6-OHDA Rat Model [2]; 3.0 mg/kg SC, Day 2): 9 ± 13%; Net ipsiversive forelimb use as a percentage of total forelimb use (Average ± SEM; n = 8) (6-OHDA Rat Model [2]; 3.0 mg/kg SC, Day 5): 85 ± 8%; oral and intraperitoneal bioavailability [3]: less than 10%; Net number of contraversive turns/6 h period (Average ± SEM; n = 8) (6-OHDA Rat Model [4]; 0.5 mg/kg SC, Day 1): 983 ± 405 turns/6 h period; Net number of contraversive turns/6 h period (Average ± SEM; n = 8) (6-OHDA Rat Model [4]; 0.5 mg/kg SC, Day 5): −49 ± 9 turns/6 h period; Net number of contraversive turns/6 h period (Average ± SEM; n = 8) (6-OHDA Rat Model [4]; 3.0 mg/kg SC, Day 1): 1570 ± 312 turns/6 h period; Net number of contraversive turns/6 h period (Average ± SEM; n = 8) (6-OHDA Rat Model [4]; 3.0 mg/kg SC, Day 5): −39 ± 15 turns/6 h period; half-life ([5]; male, Sprague-Dawley, subcutaneous, 0.5 mg/kg, rat plasma, IV or SC dosing, read-out: terminal plasma half-life (t½) of rotigotine (converted)): 2.8 h |
| N[C@@H](Cc1ccc(O)c(O)c1)C(=O)O [levodopa] | – | – | – | – | – | – | – | – | – | bioavailability [6]: less than 10% |
| H-[(Acetyl-Rotigotine)10(EOZ)190]—COOH 20K [POZ acetyl rotigotine] | good water solubility | 50 ± 13 | 85 ± 10 | 872 ± 232 | −14 ± 14 | 16 | essentially the same PK profile when delivered either SC or IV | 48 | – | – |
| H-[(Propionyl-Rotigotine)10(EOZ)190]—COOH 20K [POZ propyl rotigotine] | good water solubility | 0 ± 14 | 31 ± 13 | 1408 ± 286 | 68 ± 60 | 60 | markedly prolonged PK profile that is near “zero order” kinetics | 6 | 60 | Net ipsiversive forelimb use as a percentage of total forelimb use (Average ± SEM; n = 8) (6-OHDA Rat Model [2]; 6.4 mg/kg SC, Day 2): −2 ± 26%; Net ipsiversive forelimb use as a percentage of total forelimb use (Average ± SEM; n = 8) (6-OHDA Rat Model [2]; 6.4 mg/kg SC, Day 5): −6 ± 16%; forelimb use activity, in words (6-OHDA Rat Model [2]; day 5, both doses of 1.6 and 6.4 mg/kg): marked and continuous ipsiversive forelimb use; PK profile of plasma rotigotine, in words ([8]; subcutaneous): markedly prolonged PK profile that is near “zero order” kinetics; Net number of contraversive turns/6 h period (Average ± SEM; n = 8) (6-OHDA Rat Model [4]; 6.4 mg/kg SC, Day 1): 1272 ± 405 turns/6 h period; Net number of contraversive turns/6 h period (Average ± SEM; n = 8) (6-OHDA Rat Model [4]; 6.4 mg/kg SC, Day 5): 5142 ± 777 turns/6 h period; rotational activity, in words (6-OHDA Rat Model [4]; day 5, high dose of 6.4 mg/kg): marked and continuous contraversive rotations |
| H-[(α-Methyl-Acetyl-Rotigotine)10(EOZ)190]—COOH 20K [POZ alpha methyl acetyl rotigotine] | good water solubility | – | – | – | – | – | – | – | 9 | – |
